Experiments:
[1] = tested on: neutrophils co-cultured with A-beta activated microglia; test: neutrophil recruitment toward soluble A-beta activated microglia (co-culture in microfluidic device); assay type: cell-based, human; conditions: for recruiting of neutrophils in the recapitulated AD environment: microglia-derived chemokines by A-beta stimulation; for higher neutrophil migration in central chamber: soluble A-beta 2.2 uM, 6 hours
Text: Microglial cells are resident brain immune cells and stimulated by soluble A-beta42, which is a signature of human AD neurotoxic peptide. Based on our previous observation of neutrophil accumulation on A-beta plaques in in vivo, we hypothesize that A-beta activated microglial cells has a critical role in recruiting neutrophil. Stimulated microglial cells can release various types of chemokines and/or cytokines to increase inflammatory behavior or to clear A-beta in inflamed region. Furthermore, those secreted chemokines and/or cytokines can recruit other cell types including peripheral immune cells (FIG. 9A). To modulate this whole process, we established an in vitro AD brain-blood model (ADBBM) using microglia and neutrophil to mimic the brain microenvironment. To accommodate the different cells separately in a single microfluidic platform, we employed mechanically separated two chambers, which are connected through neutrophil specific migration channels (10×5×500 μm in width, height, and length) forming gradients of chemokines and/or cytokines (FIG. 9B).
Compared to a parallel configuration having equal surface areas for cell loading and cell collection, the asymmetric configuration of the current microfluidic device 10 has a small central cell collecting compartment (central chamber 30), which is smaller than a large annular cell loading compartment (annular chamber 50) by a factor of 3, 4, 5, 6, 7, 8, 9, 10 or greater. […] This enhances the gradient formation and detection of recruitment. The long and thin migration channels 60 can block spontaneous entrance of inactivated neutrophil through mechanical constraints. Using this platform, we could culture microglial cells for extended periods to accumulate enough soluble factors and could observe neutrophil signature movement at single cell resolution, in real-time. Red membrane dye stained microglial cells plated first in central chamber 30 and incubated for 3 days with soluble A-beta to modulate chemokine/cytokine enriched AD microenvironment. Freshly isolated neutrophil labeled with green membrane dye plated on annular chamber 50 and incubated under microscope to observe their movement and accumulation in central chamber 30. Precise numbers of neutrophils are reproducibly loaded and uniformly distributed in annular chamber 50 and this design allows us to evaluate the response of neutrophil to various types of chemokines and/or cytokines. We tested 200 independent conditions at the same time, by using real time imaging of process in an array of twenty-five formatted on a single well plate 140 or an array of one-hundred nineteen formatted single well plate 140 (FIG. 7 and FIG. 8).
To validate the dependency of neutrophil migration toward soluble A-beta activated microglia, microglial cells plated on central chamber 30 with various cell numbers (5,000, 10,000, 20,000 cells). Microglial cells are pre-labeled with membrane dye according to manufacturer's protocol to observe their morphology change. After 24 hour incubation of microglia alone, prepared soluble A-beta (2.2 uM) with reduced 1% FBS Prigrowlll media were changed to incubate further for 48 hours. After 48 hours, freshly isolated neutrophil labeled with green membrane dye plated on annular chamber 50 and incubated on microscopic real time imaging chamber. Neutrophil (green) migration could be observed toward soluble A-beta activated microglia (red) cultured central chamber 30 after 6 hours (FIG. 11A). 2.4-, 1.2-times higher neutrophil migration could be observed in central chamber 30 in response to 10,000 and 20,000 cultured microglia in central chamber 30 by showing the dependency of neutrophil recruitment in cell numbers. […] By utilizing high-resolution and spatiotemporal controlled microscopic imaging method, we also can quantify the persistent movement of microglial cells in various stimulations. […]

[2] = tested on: U87 glioma line; test: glioma migration/invasiveness in microfluidic device, alone or in co-culture with microglia; assay type: cell-based; conditions: glioma cells cultured alone
Text: Here, we reconstituted a microenvironment of boosted brain tumor invasion by inducing glioma migration by using EGF, a chemoattractant for glioma, and promoting the migration via the incorporation with microglia. We plated both glioma and microglia on the outer chamber and EGF in the central chamber, which are connected through migration channels (50×10×500 μm in width, height, and length) forming gradients of chemokines for glioma. We found PAI-1 is abundantly expressed on most glioma lines. Next, we culture the U87 glioma line, which has produced PAI-1, to investigate the hypothesis that glioma-secreted PAI-1 interacts with microglia to affect glioma migration. In co-culture with microglia in a microfluidic device, the invasiveness of PAI-1 expressing U87 cell lines was increased. […] This study has uncovered a mechanism by which glioma cells exploit microglia for increased invasiveness. Specifically, glioma-derived PAI-1 acts upon microglia, which then produces IL-6 to stimulate gliomas. The PAI-1/IL-6 loop is a potential therapeutic target for the currently incurable malignant gliomas.

[3] = tested on: human neutrophils; test: microfluidic chemotactic model for neutrophil migration (platform validation with fMLP); assay type: cell-based; conditions: for neutrophils migrated back from chemoattractant / neutrophils migrated towards chemoattractant: persistence at 1 hour
Description: FIG. 10F. Neutrophil recruitment was quantified by comparing the fraction of cells inside the central chamber (CC) to the total number of cells in the corresponding angular chamber device (AC). The R.I. is calculated as R.I.=(CCDay i−CCDay 0)/ACDay i, where Day i is the number of cells in the central chamber and ADDay i is the number of cells in angular chamber. The recruitment index, R.I., is obtained by normalizing with the subtraction at ‘CCDay 0’ cell numbers.
We validated the assay by measuring the migration and accumulation of neutrophils toward a panel of known chemoattractant. To compare the effect of fMLP in various concentrations on neutrophil recruitment, we defined a neutrophil recruitment index, R.I. (FIG. 10B, FIG. 10F), representing the fraction of neutrophil recruited to the central chamber after loading fMLP in the central chamber. We compared the R.I. values under various soluble factors, (fMLP, A-beta, and media) (FIG. 10B) and could observe predominant neutrophil (green) recruitment with N-formyl-methionine-leucine-phenylalanine (fMLP) (10 nM) in central chamber 30 after 6 hours (FIG. 10A). A negligible number of cells entered central chamber in the absence of a chemoattractant by proving that the mechanical barrier 40 can exclude the spontaneous entrance of neutrophil. […] Neutrophils move through migration channels 60 at 18±5 μm/min and could reach central chamber in less than 30 min (FIG. 10G). We compared the migratory response of human neutrophils with various stimulators. […] Concentration-dependent changes in migration patterns in response to fMLP was primarily affect the migrating faction while there was no significant effect on persistent directionality.
(§1) Immortalized microglial cells (SV40-microglia) were purchased from Abm company (ABM Inc., Montreal, Canada). The cells were plated onto T25 cell culture flasks (BD Biosciences, San Jose, Calif., USA) and maintained in Prigrow III Medium (ABM Inc) supplemented with 50 mL FBS (Life Technologies) and 5 mL Pen/Strep (Invitrogen) in a CO2 cell culture incubator. Cell culture media were changed every 3 days until cells were confluent. For neutrophil isolation, human peripheral blood samples from healthy volunteers, aged 18 years and older, were purchased from InvivoGen. Peripheral blood was drawn in 10-ml tube containing a final concentration of 5 mM EDTA (Vacutainer; Becton Dickinson). Nucleated cells were isolated using a HetaSep gradient, followed by the EasySep Human Neutrophil Enrichment Kit (STEMCELL Technologies, Vancouver, Canada) according to the manufacturer's protocol.
After microglia loading, cells were recorded using time-lapse imaging using a fully automated Nikon TiE microscope with a heated incubator to 37° C. and 5% CO2 (10× magnification; Micro Device Instruments, Avon, Mass., USA). To achieve accurate cell tracking, the maximum time resolution of acquisition was 0.2 frames per second.
FIG. 10. Design and validation of a microfluidic chemotactic model for neutrophil migration. (10A) Neutrophils (green) instantly migrated along microchannels designed for neutrophils with a gradient of fMLP (10 nM) and accumulated in a central chamber, the source of fMLP. (10C) Time-lapse images show a simultaneous bi-directional migration of neurophils under the fMLP gradient on a single cellular level. The red arrows indicate persistent forward migration of neutrophils along the gradient of the chemoattractant and green arrows indicate the backward migration against the gradient. […] Combined data from n=5 independent experiments. Scale bars: (10A) 500 μm, (10C) 50 μm. Data represented as mean±SEM.

[4] = tested on: human primary microglial; test: microfluidic chemotaxis platform for microglial motility under soluble A-beta gradient; assay type: cell-based; conditions: soluble monomeric and oligomeric A-beta, picomolar to nanomolar concentrations
Text: Activated microglia initially take on various morphologies: rounded, ramified shapes, rods to amoeboid forms followed by motile activation, which complicates the visual tracking of individual cells. Previous in vitro attempts to study rat microglial migration in the presence of short-lived damaged axons could not establish long-lasting gradients and could not conclusively differentiate slow accumulation of microglia from heterogeneous activation and random navigation. We developed a novel, microfluidic chemotaxis platform to study the motility of those microglia selectively responding to stimuli in a regulated manner. To understand the specific roles of A-beta in microglial accumulation in the context of AD, we generated a week-long lasting soluble A-beta gradient, patterned insoluble surface-bound A-beta to mimic A-beta signature in AD brains, and isolated human primary microglial responding to A-beta in our platforms. We tested 200 independent conditions in a single batch, while using real time imaging of process in an array of twenty-five formatted single well plate. […] We also observed discernable co-localization of microglia to the sites of insoluble A-beta, representing A-beta plaques.

[5] = tested on: microglia; test: A-beta stimulation of microglia and analysis of cytokine release / activation markers; assay type: cell-based, human
Text: To characterize the phenotype changes in microglia induced by soluble A-beta, individual microglial cells were monitored for three days using time-lapse imaging microscopy. […] Morphological changes could be observed at 48 hrs following cell seeding (FIG. 9C bottom, +A-beta). As determined by image analysis, microglial cells became large and switched into more amoeboid type as the length and area of microglial somata (cell bodies) increased in all direction (FIG. 9C). And filopodia, which is observed in resting mode microglia, could not be observed in A-beta stimulated microglia. Furthermore, exposure of microglia to soluble A-beta induced up-regulation of microglial activation markers such as CD11b (FIGS. 9D and 9E) and CD68 (FIG. 9F). […] Membrane stained microglial cells (red) immunostained with anti-CD68 to observe activation of microglial cells with A-beta.
As microglia are the predominant resident immune cells of the brain, we next determined the effects of the soluble A-beta AD microenvironment on the inflammatory activity of microglia. Exposure to soluble A-beta was associated with significant increases in chemokine release (FIG. 9B).
as §1
For immunofluorescent stain, we rinsed the cells in medium twice with DPBS. To fix, cells were incubated in fresh 4% paraformaldehyde aqueous solution (157-4, ElectronMicroscopy Sciences) for more than 15 minutes at RT followed by rinsing twice with DPBS. To permeabilize, cells were incubated in 0.1% Triton X-100 in PBST (phosphate buffered saline with 0.1% tween®20) for 15 minutes at RT. To block, cells were incubated in 3% human serum albumin for overnight in PBST at 4° C. After incubating with the primary antibody solutions for 24 hour at 4° C., the cells were washed five times. The following antibody (and dilutions) were used: anti-cd11b (1:100, Life Technologies).
Microfluidic devices 10 were cultured for 72 hours, followed by incubation in A-beta containing medium with fetal bovine serum reduced from 10% to 1%. Microglia culture on central chamber 30 were stimulated with A-beta (Sigma Aldrich) at 2.2 uM with […] serum for 72 hrs. The cytokine release profile was assayed with the Human Cytokine 37-membrane kit array (R&D systems) and the resulting cytokine release profiles were quantified with ImageJ analysis.
FIG. 9. Activation of microglial inflammation with A-beta: chemokine release, morphogenesis, and marker expression. […] Both the membrane area (9D) and the amounts of expressed CD11b (9E) increase in the activated microglia with A-beta. ndevice=3, ncell=150. Scale bars: 30 μm. All parameters are presented as mean±SEM.

[6] = microglia exposed to soluble A-beta compared to microglia without A-beta

CCL2: microglia-derived chemokine released on A-beta stimulation
recruiting of neutrophils in the recapitulated AD environment [1]: effective for recruiting neutrophils

IL6: interleukin (IL)-6; microglia-derived cytokine, also used as recombinant protein
invasiveness of glioma cells [2]: enhanced the invasiveness | recruiting of neutrophils in the recapitulated AD environment [1]: effective for recruiting neutrophils

IL8: microglia-derived chemokine released on A-beta stimulation
recruiting of neutrophils in the recapitulated AD environment [1]: effective for recruiting neutrophils

N-formyl-methionine-leucine-phenylalanine [fMLP]
neutrophils migrated back from chemoattractant ([3]; 1 nM fMLP): 17.8±2.8% | neutrophils migrated towards chemoattractant ([3]; 1 nM fMLP): 82.2±3.4% | magnitude of cell recruitment (recruitment index), 10 nM compared to 1 nM ([3]; 10 nM fMLP compared to 1 nM fMLP, central chamber, 6 hours): 1.6 times | neutrophils migrated back from chemoattractant ([3]; 10 nM fMLP): 11.5±1.7% | neutrophils migrated towards chemoattractant ([3]; 10 nM fMLP): 88.5±3.8% | time to plateau of neutrophil response ([3]; fMLP in central chamber): ≤ 6 h | decrease in the total fraction of migrating cells ([3]; increasing fMLP from 10 nM to 1 μM): 63% | speed of neutrophils moving through migration channels ([3]; migrating towards fMLP): 18±5 μm/min | time to reach central chamber ([3]; migrating towards fMLP): less than 30 min

amyloid-beta [A-beta]
microglial chemoattraction [4]: acting as a microglial chemoattractant | microglial activation markers CD11b and CD68 ([5]; exposure of microglia to soluble A-beta, immunostaining): up-regulation | secretion of anti-inflammatory markers (IL-1RA, IL-4, IL-10, TGF-β) ([5]; microglia exposed to soluble A-beta): very low or no detectable | CCL2 concentration increase [5, 6]: 1.4 fold | IL-6 concentration increase [5, 6]: 1.9 fold | IL-8 concentration increase [5, 6]: 2.3 fold | chemokine release of CCL3/4, CCL5 [5, 6]: new chemokine release | higher neutrophil migration in central chamber ([1]; 10,000 microglia in central chamber): 2.4 times | higher neutrophil migration in central chamber ([1]; 20,000 microglia in central chamber): 1.2 times | neutrophil migration ([1]; A-beta alone, no microglia): Negligible neutrophil migration | persistence of neutrophil migration ([1]; co-culture with soluble A-beta activated microglial cells): about 92%

B1: CCL5: microglia-derived chemokine released on A-beta stimulation (protein, UniProt P13501 24-91, looked up)
C-C motif chemokine 5: SPYSSDTTPCCFAYIARPLPRAHIKEYFYTSGKCSNPAVVFVTRKNRQVCANPEKKWVREYINSLEMS
recruiting of neutrophils in the recapitulated AD environment [1]: effective for recruiting neutrophils

Reference: patent US20180356397A1, “MIMICRY OF NEUROINFLAMMATORY MICROENVIRONMENTS AND METHODS OF USE AND MANUFACTURING THEREOF” (priority 2017, published 2018)
